Experimental data: patent US10899790B2, “Method for modifying T cell population” (OSAKA UNIVERSITY, priority 2016, dated 2021)

Assays:
[1] = target: T1, Retinol Dehydrogenase 10 (RDH10) (Homo sapiens, UniProt Q8IZV5); assay: Inhibition of RDH10 enzyme activity (microsomal fraction of RDH10-expressed 293T, all-trans retinol to all-trans retinal, HPLC); assay type: biochemical; settings: final concentration of 20 μM; relative to DMSO control (FIG. 1)
T1 construct: expressed in transfected cells; host or cells: 293T (microsomal fraction)
T1 sequence (Q8IZV5 1-341): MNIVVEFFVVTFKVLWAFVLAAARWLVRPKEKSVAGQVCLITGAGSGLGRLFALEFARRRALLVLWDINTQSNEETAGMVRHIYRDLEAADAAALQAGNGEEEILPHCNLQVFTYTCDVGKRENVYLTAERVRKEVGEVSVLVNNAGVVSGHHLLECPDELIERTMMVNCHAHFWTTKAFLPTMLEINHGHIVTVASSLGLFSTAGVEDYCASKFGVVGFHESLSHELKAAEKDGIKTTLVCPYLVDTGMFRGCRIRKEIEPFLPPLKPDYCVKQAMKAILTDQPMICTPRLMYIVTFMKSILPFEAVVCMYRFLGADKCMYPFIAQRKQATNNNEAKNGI
Method: All-trans retinol, BSA, and NAD (nicotinamide adenine dinucleotide) as a coenzyme were added to a buffer for reaction (90 mM potassium phosphate buffer, pH7.4, 40 mM KCl) so as to have final concentrations of 10 μM, 10 μM, and 1 mM respectively. This mixture was taken in siliconized tubes by 200 μl for each, the microsomal fractions separated from 293T and RDH10-expressed 293T were added to separate tubes by 10 μl for each, and the mixtures were allowed to react at 37° C. for 15 minutes. After 200 μl of methanol was added to the reaction mixtures to stop the reaction, retinoid was extracted using hexane and concentrated. The concentrated retinoid was dissolved in 150 μl of acetonitrile, separated by HPLC, and subjected to the detection of ultraviolet light absorption at a wavelength of 350 nm, whereby the substrate (all-trans retinol) and the product (all-trans retinal) were detected. In addition, standard samples (all-trans retinol and all-trans retinal) were separated by HPLC and the retention times of the respective standard samples were determined in advance. The solvent for HPLC was acetonitrile: 50 mM ammonium acetate=75:25. As the separation column, Syhergi 4 μm Hydro-RP 80A (manufactured by Phenomenex) was used. In addition, the flow rate was 2.0 ml/min. The RDH10 enzyme activity was calculated by reading the amount of product per fixed time from the chart of HPLC.
All-trans retinol, BSA, and NAD (nicotinamide adenine dinucleotide) as a coenzyme were added to a buffer for reaction (90 mM potassium phosphate buffer, pH7.4, 40 mM KCl) so as to have final concentrations of 10 μM, 10 μM, and 1 mM respectively. This mixture was taken in siliconized tubes by 200 μl for each, the microsomal fraction separated from RDH10-expressed 293T was added to separate tubes by 10 μl for each. The RDH10 inhibitor dissolved in DMSO was added to each tube so as to have a final concentration of 20 μM, and the same amount of DMSO was added to the control tube. The mixture was allowed to react at 37° C. for 15 to 30 minutes, 200 μl of methanol was added to the reaction mixtures, and then retinoid was extracted using hexane and concentrated. The concentrated retinoid was dissolved in 150 μl of acetonitrile, separated by HPLC, and subjected to the detection of ultraviolet light absorption at a wavelength of 350 nm, whereby the substrate (all-trans retinol) and the product (all-trans retinal) were detected. In addition, standard samples (all-trans retinol and all-trans retinal) were separated by HPLC and the retention times of the respective standard samples were determined in advance. The solvent for HPLC was acetonitrile: 50 mM ammonium acetate=75:25. As the separation column, Syhergi 4 μm Hydro-RP 80A (manufactured by Phenomenex) was used. The flow rate was 2.0 ml/min.
The enzyme activity was determined by the waveform area of the product (all-trans retinal) with respective to the waveform area of the non-reacted substrate (all-trans retinol), and the relative value with respect to the enzyme activity in the control is illustrated in FIG. 1. The error bars indicate SD (standard deviation).

[2] = test system: Healthy human-derived CD4+CD45RO+T cells; assay: Effect in vitro: CD62L and CD127 expression in cultured T cells by flow cytometry; assay type: cell-based; settings: 20 μM; anti-CD3, anti-CD28, IL-2; vs DMSO control (FIG. 2)
Method: Healthy human-derived CD4^+CD45RO^+T cells (1×10^5) were cultured in the presence of anti-CD3 antibody (2 μg/ml), anti-CD28 antibody (2 μg/ml), IL-2 (20 IU/ml) and RDH10 inhibitors (Compound No. 16 (RDHI-032), Compound No. 17 (RDHI-033), and Compound No. 18 (RDHI-034)) (20 μM for each). In addition, DMSO was used as a control for the RDH10 inhibitor. After seven days […] resuspended in a fresh culture medium to which IL-2 was not added, and cultured for one more day. Thereafter, the expression of CD62L and CD127 in T cells was analyzed by flow cytometry. The culture solution used was X-VIVO15 to which AB serum was added to have a final concentration of 10%.

SMILES	RDH10 enzyme activity inhibitory action [1]	amplification of memory T cells (CD62L+CD127+T cells) [2]	effector T cells (CD62L−CD127−T cells) [2]
COC(=O)[C@@]1(C)CC[C@]2(C)CC[C@]3(C)C(=CC(=O)[C@@H]4[C@@]5(C)CCC(NC(=O)/C=C\C(=O)O)C(C)(C)[C@@H]5CC[C@]43C)[C@H]2C1 (stereo partly drawn) [Compound No. 5, (Z)-4-((4aR,6aR,6bS,8aS,11S,12aS,14aR,14bS)-11-(methoxycarbonyl)-4,4,6a,6b,8a,11,14b-heptamethyl-14-oxo-1,2,3,4,4a,5,6,6a,6b,7,8,8a,9,10,11,12,12a,14,14a,14b-icosahydropicen-3-ylamino)-4-oxobut-2-enoic acid]	relatively potent	tended to amplify memory cells	
COC(=O)[C@@]1(C)CC[C@]2(C)CC[C@]3(C)C(=CC(=O)[C@@H]4[C@@]5(C)CCC(NC(=O)N[C@@H](Cc6ccccc6)C(=O)O)C(C)(C)[C@@H]5CC[C@]43C)[C@H]2C1 (stereo partly drawn) [Compound No. 14, (2S)-2-(3-((4aR,6aR,6bS,8aS,11S,12aS,14aR,14bS)-11-(methoxycarbonyl)-4,4,6a,6b,8a,11,14b-heptamethyl-14-oxo-1,2,3,4,4a,5,6,6a,6b,7,8,8a,9,10,11,12,12a,14,14a,14b-icosahydropicen-3-yl)ureido)-3-phenyl propanoic acid]	relatively potent		
CC1(C)C(N)CC[C@]2(C)[C@H]3C(=O)C=C4[C@@H]5C[C@@](C)(C(N)=O)CC[C@]5(C)CC[C@@]4(C)[C@]3(C)CC[C@@H]12 (stereo partly drawn) [Compound No. 16, (2S,4aS,6aS,6bR,8aR,12aS,12bR,14bR)-10-amino-2,4a,6a,6b,9,9,12a-heptamethyl-13-oxo-1,2,3,4,4a,5,6,6a,6b,7,8,8a,9,10,11,12,12a,12b,13,14b-icosahydropicene-2-carboxamide]	relatively potent	amplified memory T cells	decreased
CC(=O)NC1CC[C@]2(C)[C@H]3C(=O)C=C4[C@@H]5C[C@@](C)(C(N)=O)CC[C@]5(C)CC[C@@]4(C)[C@]3(C)CC[C@H]2C1(C)C (stereo partly drawn) [Compound No. 17, (2S,4aS,6aS,6bR,8aR,12aS,12bR,14bR)-10-acetamido-2,4a,6a,6b,9,9,12a-heptamethyl-13-oxo-1,2,3,4,4a,5,6,6a,6b,7,8,8a,9,10,11,12,12a,12b,13,14b-icosahydropicene-2-carboxamide]	relatively potent	amplified memory T cells	decreased
CC1(C)C(NC(=O)c2ccccc2)CC[C@]2(C)[C@H]3C(=O)C=C4[C@@H]5C[C@@](C)(C(N)=O)CC[C@]5(C)CC[C@@]4(C)[C@]3(C)CC[C@@H]12 (stereo partly drawn) [Compound No. 18, (2S,4aS,6aS,6bR,8aR,12aS,12bR,14bR)-10-benzamide-2,4a,6a,6b,9,9,12a-heptamethyl-13-oxo-1,2,3,4,4a,5,6,6a,6b,7,8,8a,9,10,11,12,12a,12b,13,14b-icosahydropicene-2-carboxamide]	relatively potent	amplified memory T cells	decreased
COC(=O)[C@@]1(C)CC[C@]2(C)CC[C@]3(C)C(=CC(=O)[C@@H]4[C@@]5(C)CCC(NC(=O)N6CCOCC6)C(C)(C)[C@@H]5CC[C@]43C)[C@H]2C1 (stereo partly drawn) [Compound No. 22, (2S,4aS,6aS,6bR,8aR,12aS,12bR,14bS)-methyl 2,4a,6a,6b,9,9,12a-heptamethyl-10-(morpholine-4-carboxamido)-13-oxo-1,2,3,4,4a,5,6,6a,6b,7,8,8a,9,10,11,12,12a,12b,13,14b-icosahydropicene-2-carboxylate]	exhibited the RDH10 enzyme activity inhibitory action	tended to amplify memory cells	
COC(=O)[C@@]1(C)CC[C@]2(C)CC[C@]3(C)C(=CC(=O)[C@@H]4[C@@]5(C)CCC(NC(=O)N6CCOCC6)C(C)(C)[C@@H]5CC[C@]43C)[C@@H]2C1 (stereo partly drawn) [Compound No. 23, (2S,4aS,6aS,6bR,8aR,12aS,12bR,14bR)-methyl 2,4a,6a,6b,9,9,12a-heptamethyl-10-(morpholine-4-carboxamido)-13-oxo-1,2,3,4,4a,5,6,6a,6b,7,8,8a,9,10,11,12,12a,12b,13,14b-icosahydropicene-2-carboxylate]	exhibited the RDH10 enzyme activity inhibitory action	tended to amplify memory cells	
